Legend:
[1] = tested on: adult human subjects with type 2 diabetes at high risk for cardiovascular events; test: Example 1 cardiovascular outcomes trial (DEVOTE), insulin degludec vs insulin glargine: SMPG and blood pressure variability; format: in vivo
Method: (§1) A long-term, multi-centre, multi-national, randomised, double-blind, parallel-group, active comparator-controlled trial with 7637 human subjects was carried out with treatment that would continue until at least 633 positively adjudicated primary cardiovascular events were accrued. This trial concerned incidence of cardiovascular events in adult human subjects with type 2 diabetes that were at high risk for cardiovascular events, including such subjects with existing cardiovascular disease. The primary objective of this trial was to confirm the cardiovascular safety of insulin degludec compared to that of insulin glargine. The secondary objective was to assess efficacy of insulin degludec on markers of glycaemic control and to assess safety on other parameters in subjects with type 2 diabetes that were at high risk for cardiovascular events.
Subjects were randomised 1:1 in a double-blinded manner to receive blinded insulin degludec or blinded insulin glargine, each added to standard of care. […] For subjects receiving premixed/biphasic insulin OD, the basal component was calculated and transferred unit-to-unit to investigational product OD. The bolus insulin component was calculated and transferred unit-to-unit to bolus insulin and given at the most appropriate meal at the investigator's discretion. For subjects receiving premixed/biphasic insulin twice daily (or more), the total basal component was calculated, reduced by 20-30% and transferred to investigational product OD; the bolus component was to be calculated and transferred to insulin aspart and dosed with the most appropriate meals at the investigator's discretion. […]
Subjects adjusted their basal insulin dose weekly, aiming for a pre-breakfast (fasting) SMPG value of 71-90 mg/dL (4.0-5.0 mmol/L) by using the algorithm in Table 6. The basal dose was adjusted based on the lowest of three pre-breakfast SMPG values, preferably measured two days prior to dose adjustment and on the day of the dose adjustment. […]

[2] = tested on: individuals with type 2 diabetes and established cardiovascular risk (MACE); test: CV risk model based on the DEVOTE trial: MACE hazard ratio IDeg/IGlar by CV risk score and subgroup; format: in vivo, human
Method: as §1
The results of this trial may be presented herein as a number or fraction of subjects experiencing an event. Alternatively, the results of this trial may be presented with hazard ratios estimated in a Cox proportional hazard model, which is the standard statistical model used for estimating time to an event. The term “hazard ratio” (also referred to as “HR”) as used herein means the instantaneous risk ratio of experiencing an event when administered insulin degludec compared to insulin glargine which are the two treatments in this trial. An upper limit of the 95% confidence interval (CI) for the HR of less than 1.00 means that the estimated treatment ratio between insulin degludec and insulin glargine with respect to the event of interests is statistically significant in favour of insulin degludec on a 5% significance level. A 5% significance level is the standard level for investigating significance in clinical trials.
Based on the DEVOTE trial, a cardiovascular (CV) risk score has been developed for individuals with established cardiovascular risk. This risk score was developed using available medical history, baseline information and cardiovascular events occurring during the trial. […] The variables are listed in descending order according to their impact on the overall risk of major adverse cardiovascular events (MACE), here consisting of cardiovascular death, non-fatal myocardial infarction, or non-fatal stroke. The combination of these variables yields an algorithm that can be used to determine the risk of future MACEs and to determine the benefit of being treated with IDeg compared to IGlar.
The CV risk score and estimated MACE hazard ratio for CV risk scores by quartiles based on number of events are presented in FIG. 1. […] This benefit is seen regardless of which of the individual predictors contribute to the high score.
For example, subjects with a BMI ≥30 kg/m^2 and diastolic blood pressure ≥80 mmHg, and subjects with a diastolic blood pressure ≥80 mmHg who were treated with statins would have a benefit with IDeg compared to IGlar in terms of risk of MACE (Table 25).

[3] = tested on: human subjects with type 2 diabetes inadequately controlled with basal insulin and metformin; conditions: in vivo
Method: (§2) A 26-week randomised, parallel two-arm, double-blind, multi-centre, multinational, treat-to-target trial in 413 human subjects with type 2 diabetes inadequately controlled with basal insulin and metformin with or without SU or glinides was carried out comparing the efficacy and safety of insulin degludec+liraglutide (Xultophy®, IDegLira) once daily with insulin degludec (Tresiba®, IDeg) once daily both added on to metformin. […] The secondary objective was to compare the overall efficacy and safety parameters of IDegLira and IDeg after 26 weeks of treatment. All trial endpoints were collected and assessed throughout the entire duration of the trial.
(§3) Eligible subjects were randomised 1:1 to either once daily IDegLira or once daily IDeg, both in combination with metformin. […] For each subject, the duration of the trial was to be approximately 29 weeks: up to 2 weeks between screening and first treatment, 26 weeks of treatment and at least 1 week of wash-out at the end of the trial.
(§4) The IDegLira dosing unit is defined as a dose step. One (1) IDegLira dose step consists of 1 unit insulin degludec and 0.036 mg liraglutide. Treatment with IDegLira was initiated at 16 dose steps containing 16 units insulin degludec and 0.6 mg liraglutide. Adjustment of the IDegLira dose was performed twice weekly based on the mean of 3 preceding daily fasting SMPG values on 3 consecutive days. Adjustments occurred in 2 dose steps aiming at a fasting glycaemic target of 4.0-5.0 mmol/L (72-90 mg/dL). The maximum allowed dose was 50 dose steps (50 units IDeg/1.8 mg liraglutide). IDeg treatment was initiated with 16 units, and titrated twice weekly to the fasting glycaemic target of 4.0-5.0 mmol/L (72-90 mg/dL) based on the mean fasting SMPG from 3 proceeding measurements as described for IDegLira. The maximum allowed dose was 50 units.
(§5) Subjects received IDegLira or IDeg by subcutaneous administration in addition to metformin. IDegLira or IDeg was injected subcutaneously in the thigh, upper arm (deltoid region) or abdomen once daily preferably at the same time every day. The injection area chosen were to remain unchanged throughout the trial, but rotation within the area was recommended.

[4] = tested on: human subjects with type 2 diabetes inadequately controlled with basal insulin and metformin; test: Example 4: 26-week double-blind trial, IDegLira vs IDeg, both added to metformin
Method: as §2, §3, §4, §5

## N^εB29-(N^α-(HOOC(CH2)14CO)-γ-Glu) desB30 human insulin [IDeg]
[1]
  Systolic Blood Pressure variability, Rate: 0.94
[1]; relative fluctuation of 8-point profile, log scale ANOVA
  8PP SMPG - Within-day variability, Rate: 0.98
[1]; variances analysed on log scale, ANOVA
  Pre-breakfast SMPG - between-day variability, Rate: 0.90
[2]; CV risk score High
  HR (MACE, IDeg/IGlar): 1.04
[2]; CV risk score Low
  HR (MACE, IDeg/IGlar): 1.02
[2]; CV risk score Moderate
  HR (MACE, IDeg/IGlar): 0.89
[2]; CV risk score Very High
  HR (MACE, IDeg/IGlar): 0.67
[2]; patients who have a high CV risk score
  hazard ratio IDeg/IGlar (risk of MACE): < 1
[2]; subgroup: Age 65-75 years AND systolic blood pressure < 140 mmHg
  Estimate (risk of MACE, IDeg compared to IGlar): 0.70
[2]; subgroup: Age < 65 years AND diastolic blood pressure ≥ 80 mmHg
  Estimate (risk of MACE, IDeg compared to IGlar): 0.64
[2]; subgroup: Age < 65 years AND treated with statins
  Estimate (risk of MACE, IDeg compared to IGlar): 0.75
[2]; subgroup: BMI ≥ 30 kg/m^2 AND diastolic blood pressure ≥ 80 mmHg
  Estimate (risk of MACE, IDeg compared to IGlar): 0.68
[2]; subgroup: Diastolic blood pressure < 90 mmHg AND HDL ≥ 1.0 mmol/L
  Estimate (risk of MACE, IDeg compared to IGlar): 0.80
[2]; subgroup: Diastolic blood pressure ≥ 80 mmHg AND treated with statins
  Estimate (risk of MACE, IDeg compared to IGlar): 0.73
[2]; subgroup: Diastolic blood pressure ≥ 80 mmHg AND triglycerides > 1.7 mmol/L
  Estimate (risk of MACE, IDeg compared to IGlar): 0.69
[2]; subgroup: Established CV risk AND HDL ≥ 1.0 mmol/L
  Estimate (risk of MACE, IDeg compared to IGlar): 0.78
[2]; subgroup: Established CV risk AND diastolic blood pressure ≥ 80 mmHg
  Estimate (risk of MACE, IDeg compared to IGlar): 0.76
[2]; subgroup: Established CV risk AND pulse ≥ 70 bpm
  Estimate (risk of MACE, IDeg compared to IGlar): 0.80
[2]; subgroup: Height <170 cm AND treated with statins
  Estimate (risk of MACE, IDeg compared to IGlar): 0.75
[2]; subgroup: Non-White AND diastolic blood pressure < 90 mmHg
  Estimate (risk of MACE, IDeg compared to IGlar): 0.64
[2]; subgroup: Not Hispanic or Latino AND Non-White
  Estimate (risk of MACE, IDeg compared to IGlar): 0.64
[2]; subgroup: Not Hispanic or Latino AND triglycerides > 1.7 mmol/L
  Estimate (risk of MACE, IDeg compared to IGlar): 0.79
[2]; subgroup: Previous smoker AND age < 65 years
  Estimate (risk of MACE, IDeg compared to IGlar): 0.73
[2]; subgroup: Previous smoker AND cholesterol ≥ 3 mmol/L
  Estimate (risk of MACE, IDeg compared to IGlar): 0.79
[2]; subgroup: Previous smoker AND diastolic blood pressure ≥ 80 mmHg
  Estimate (risk of MACE, IDeg compared to IGlar): 0.66
[2]; subgroup: Previous smoker AND treated with statins
  Estimate (risk of MACE, IDeg compared to IGlar): 0.79
[2]; subgroup: Previous smoker AND triglycerides > 1.7 mmol/L
  Estimate (risk of MACE, IDeg compared to IGlar): 0.73
[2]; subgroup: Pulse ≥ 70 bpm AND diastolic blood pressure ≥ 80 mmHg
  Estimate (risk of MACE, IDeg compared to IGlar): 0.74
[2]; subgroup: Pulse ≥ 70 bpm AND triglycerides > 1.7 mmol/L
  Estimate (risk of MACE, IDeg compared to IGlar): 0.76
[2]; subgroup: Pulse ≥ 70 mmHg AND treated with statins
  Estimate (risk of MACE, IDeg compared to IGlar): 0.72
[2]; subgroup: Systolic blood pressure <140 mmHg AND HDL ≥ 1.0 mmol/L
  Estimate (risk of MACE, IDeg compared to IGlar): 0.73
[2]; subgroup: Triglycerides > 1.7 mmol/L AND HDL ≥ 1.0 mmol/L
  Estimate (risk of MACE, IDeg compared to IGlar): 0.69
[2]; subgroup: Triglycerides > 1.7 mmol/L AND treated with statins
  Estimate (risk of MACE, IDeg compared to IGlar): 0.78
[3]
  Adverse event and tolerability profiles: consistent with previous findings
  ΔHeart rate: −0.6 bpm
[4]; Baseline
  Free fatty acids: 0.5 mmol/L
  HDL cholesterol: 1.2 mmol/L
  LDL cholesterol: 2.4 mmol/L
  Total cholesterol: 4.6 mmol/L
  Triglycerides: 1.8 mmol/L
  VLDL cholesterol: 0.8 mmol/L
[4]; End of trial (26 weeks)
  Free fatty acids: 0.4 mmol/L
  HDL cholesterol: 1.2 mmol/L
  LDL cholesterol: 2.4 mmol/L
  Total cholesterol: 4.5 mmol/L
  Triglycerides: 1.6 mmol/L
  VLDL cholesterol: 0.7 mmol/L
[4]; change from baseline, 26 weeks
  ΔDiastolic blood pressure: −0.7 mmHG
  ΔSystolic blood pressure: −1.7 mmHG
